Literature values in Sander's compilation of Henry's law constants (doi:10.1063/1.1562632).
“And” between values parts separate entries of the source, which are not always exact repeats. Equal entries are not always repeated.

Test: Henry solubility constant Hcp at 298.15 K (mol/(m3 Pa))
Conditions: reference: Li et al. (2003); cited value

Q: With `Clc1cc(-c2cc(Cl)c(Cl)c(Cl)c2Cl)c(Cl)c(Cl)c1Cl` [2,2',3,3',4,4',5,5'-octachlorobiphenyl] as the compound, how does the “Henry solubility constant Hcp” value read?
A: The value was 0.15 and 0.23.

Q: For `Clc1cc(Cl)c(-c2ccc(Cl)c(Cl)c2Cl)cc1Cl` [2,2',3,4,4',5'-hexachlorobiphenyl], which “Henry solubility constant Hcp” value is on record?
A: Its value is 0.025 and 0.033.

Q: Which “Henry solubility constant Hcp” value does the source give for `Clc1cc(Cl)c(-c2cc(Cl)c(Cl)cc2Cl)cc1Cl` [2,2',4,4',5,5'-hexachlorobiphenyl] here?
A: Its value is 0.04 and 0.051.

Q: With `Clc1cc(Cl)c(-c2c(Cl)cc(Cl)cc2Cl)c(Cl)c1` [2,2',4,4',6,6'-hexachlorobiphenyl] as the compound, how does the “Henry solubility constant Hcp” value read?
A: The value was 0.013 and 0.011.

Q: Which “Henry solubility constant Hcp” value does the source give for `Clc1ccc(Cl)c(-c2cc(Cl)c(Cl)cc2Cl)c1` [2,2',4,5,5'-pentachlorobiphenyl] here?
A: Its value is 0.032 and 0.041.

Q: With `Clc1ccc(Cl)c(-c2cc(Cl)ccc2Cl)c1` [2,2',5,5'-tetrachlorobiphenyl] as the compound, how does the “Henry solubility constant Hcp” value read?
A: Its value is 0.035 and 0.04.

Q: With `Clc1ccc(-c2cc(Cl)c(Cl)cc2Cl)cc1Cl` [2,3',4,4',5-pentachlorobiphenyl] as the compound, how does the “Henry solubility constant Hcp” value read?
A: Its value is 0.031 and 0.069.

Q: Which “Henry solubility constant Hcp” value does the source give for `Clc1ccc(-c2ccc(Cl)c(Cl)c2Cl)cc1Cl` [2,3,3',4,4'-pentachlorobiphenyl] here?
A: Its value is 0.03 and 0.072.

Q: With `Clc1cc(-c2ccccc2)c(Cl)c(Cl)c1Cl` [2,3,4,5-tetrachlorobiphenyl] as the compound, how does the “Henry solubility constant Hcp” value read?
A: The value was 0.049 and 0.05.

Q: Which “Henry solubility constant Hcp” value does the source give for `Clc1ccc(-c2cc(Cl)ccc2Cl)cc1` [2,4',5-trichlorobiphenyl] here?
A: The value was 0.027 and 0.029.

Q: With `Clc1ccc(-c2ccccc2Cl)cc1` [2,4'-dichlorobiphenyl] as the compound, how does the “Henry solubility constant Hcp” value read?
A: The value was 0.038 and 0.044.

Q: For `Clc1ccc(-c2ccc(Cl)cc2)cc1` [4,4'-dichlorobiphenyl], which “Henry solubility constant Hcp” value is on record?
A: Its value is 0.07 and 0.075.
